Test results published in the supplement of paper PMC10307832.

Columns and labels:
Test in all cases: relative viability (nuclei count vs DMSO), 5 days (fraction); higher = more cells survive
Avagacestat + Dasatinib = compound: NC(=O)[C@@H](CCC(F)(F)F)N(Cc1ccc(-c2ncon2)cc1F)S(=O)(=O)c1ccc(Cl)cc1 [Avagacestat] + Cc1nc(Nc2ncc(C(=O)Nc3c(C)cccc3Cl)s2)cc(N2CCN(CCO)CC2)n1 [Dasatinib] (partner 0.075 µM)
Summary of the method: (§1)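 Relative viability divides the nuclei count in treated wells by that in vehicle wells. Lung cancer cell lines were seeded in 1536-well plates, dosed by pin tool the next day, and fixed and stained after 5 days in one step with final 0.05% Triton X-100, 1% formaldehyde and 1 ug/ml Hoechst. Dosing was a single drug or a fixed anchor-drug dose plus five library-drug doses (not always all listed) in √10 steps, and values are medians of duplicate plates imaged at 4×.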

Avagacestat + Pemetrexed = compound: NC(=O)[C@@H](CCC(F)(F)F)N(Cc1ccc(-c2ncon2)cc1F)S(=O)(=O)c1ccc(Cl)cc1 [Avagacestat] + Nc1nc2[nH]cc(CCc3ccc(C(=O)N[C@@H](CCC(=O)O)C(=O)O)cc3)c2c(=O)[nH]1 [Pemetrexed] (partner 0.2 µM)
Summary of the method: as §1

[1] = compound: NC(=O)[C@@H](CCC(F)(F)F)N(Cc1ccc(-c2ncon2)cc1F)S(=O)(=O)c1ccc(Cl)cc1 [Avagacestat] + CC(=O)c1c(C)c2cnc(Nc3ccc(N4CCNCC4)cn3)nc2n(C2CCCC2)c1=O [Palbociclib] (partner 0.5 µM)
Summary of the method: as §1

Avagacestat + Vorinostat = compound: NC(=O)[C@@H](CCC(F)(F)F)N(Cc1ccc(-c2ncon2)cc1F)S(=O)(=O)c1ccc(Cl)cc1 [Avagacestat] + O=C(CCCCCCC(=O)Nc1ccccc1)NO [Vorinostat] (partner 1 µM)
Summary of the method: as §1

Cell Line | relative viability (Avagacestat + Dasatinib; first compound 0.08 µM) | relative viability (Avagacestat + Dasatinib; first compound 0.253 µM) | relative viability (Avagacestat + Dasatinib; first compound 0.8 µM) | relative viability (Avagacestat + Dasatinib; first compound 2.53 µM) | relative viability (Avagacestat + Dasatinib; first compound 8 µM) | relative viability (Avagacestat + Pemetrexed; first compound 0.08 µM) | relative viability (Avagacestat + Pemetrexed; first compound 0.253 µM) | relative viability (Avagacestat + Pemetrexed; first compound 0.8 µM) | relative viability (Avagacestat + Pemetrexed; first compound 2.53 µM) | relative viability (Avagacestat + Pemetrexed; first compound 8 µM) | relative viability ([1]; first compound 0.08 µM) | relative viability ([1]; first compound 0.253 µM) | relative viability ([1]; first compound 0.8 µM) | relative viability ([1]; first compound 2.53 µM) | relative viability ([1]; first compound 8 µM) | relative viability (Avagacestat + Vorinostat; first compound 0.08 µM) | relative viability (Avagacestat + Vorinostat; first compound 0.253 µM) | relative viability (Avagacestat + Vorinostat; first compound 0.8 µM) | relative viability (Avagacestat + Vorinostat; first compound 2.53 µM) | relative viability (Avagacestat + Vorinostat; first compound 8 µM)
PC-3 [JPC-3] | 1.17 | 1.14 | 1.16 | 0.888 | 0.843 | 1.24 | 1.36 | 1.62 | 1.25 | 1.04 | 0.544 | 0.574 | 0.66 | 0.562 | 0.6 | 0.944 | 0.87 | 1.33 | 0.857 | 0.949
PC-14 | 0.214 | 0.182 | 0.169 | 0.13 | 0.207 | 0.137 | 0.142 | 0.134 | 0.124 | 0.136 | 0.645 | 0.618 | 0.687 | 0.461 | 0.524 | 0.774 | 0.725 | 0.808 | 0.589 | 0.619
RERF-LC-KJ | 0.974 | 0.915 | 0.776 | 0.748 | 0.664 | 0.479 | 0.477 | 0.461 | 0.465 | 0.437 | 1.16 | 1.23 | 1.2 | 1.09 | 1.14 | 0.724 | 0.64 | 0.801 | 0.685 | 0.601
SK-LU-1 | 0.172 | 0.138 | 0.18 | 0.142 | 0.189 | 1.19 | 0.972 | 0.951 | 0.97 | 0.741 | 0.377 | 0.372 | 0.327 | 0.338 | 0.345 | 0.885 | 0.714 | 0.865 | 0.636 | 0.71
SK-MES-1 | 0.33 | 0.301 | 0.394 | 0.247 | 0.364 | 1.08 | 1.07 | 1.05 | 0.878 | 0.892 | 0.318 | 0.342 | 0.329 | 0.307 | 0.32 | 1.12 | 1.35 | 1.29 | 1.06 | 1.02
SW 900 | 0.821 | 0.599 | 0.547 | 0.848 | 0.558 | 0.485 | 0.507 | 0.474 | 0.486 | 0.482 | 0.627 | 0.618 | 0.645 | 0.453 | 0.505 | 0.502 | 0.828 | 0.554 | 0.535 | 0.641
SW 1573 | 0.515 | 0.593 | 0.523 | 0.565 | 0.279 | 0.99 | 1.01 | 0.925 | 0.887 | 0.85 | 0.512 | 0.422 | 0.475 | 0.337 | 0.357 | 0.933 | 0.672 | 1.05 | 0.624 | 0.672
UMC-11 | 0.633 | 0.598 | 0.647 | 0.541 | 0.473 | 0.884 | 0.887 | 1.01 | 0.796 | 0.718 | 0.325 | 0.312 | 0.323 | 0.315 | 0.34 | 0.388 | 0.396 | 0.398 | 0.396 | 0.412
